Patent US20260364080A1, “PYRAZOLO-PYRIMIDINONE COMPOUNDS FOR USE IN METHODS OF INHIBITING WEE1 A KINASE” (Acrivon Therapeutics, Inc., priority 2023, published 2026)
Like-named read-outs stand apart in the source and are kept apart here.

Tests used:
[1] = biological target: T1, recombinant human Wee1A kinase (Homo sapiens, UniProt P30291); assay: Wee1A kinase binding assay (LanthaScreen Eu time-resolved FRET)
T1 construct: full length Wee1 kinase was expressed by baculovirus in insect cells; purchased Invitrogen PV3817; host or cells: insect cells (baculovirus)
Outline: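 Full-length, baculovirus-expressed GST-tagged Wee1A (5 nM) was mixed with 2 nM Eu-anti-GST antibody, 30 nM kinase tracer 178 and compound (1% DMSO). Buffer was 50 mM HEPES pH 7.5, 10 mM MgCl2, 1 mM EGTA, 0.01% Brij-35, incubated 60 min at room temperature. TR-FRET 665/615 nm emission ratios from duplicates were curve-fitted.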

[2] = biological target: T2, Myt1 kinase (recombinant PMYT-1) (Homo sapiens, UniProt Q99640); assay: Myt1 kinase binding assay (LanthaScreen Eu Kinase Binding Assay)
T2 construct: full length PMYT-1 was expressed by baculovirus in insect cells; purchased Invitrogen A30984; host or cells: insect cells (baculovirus)
T2 sequence (Q99640 1-499): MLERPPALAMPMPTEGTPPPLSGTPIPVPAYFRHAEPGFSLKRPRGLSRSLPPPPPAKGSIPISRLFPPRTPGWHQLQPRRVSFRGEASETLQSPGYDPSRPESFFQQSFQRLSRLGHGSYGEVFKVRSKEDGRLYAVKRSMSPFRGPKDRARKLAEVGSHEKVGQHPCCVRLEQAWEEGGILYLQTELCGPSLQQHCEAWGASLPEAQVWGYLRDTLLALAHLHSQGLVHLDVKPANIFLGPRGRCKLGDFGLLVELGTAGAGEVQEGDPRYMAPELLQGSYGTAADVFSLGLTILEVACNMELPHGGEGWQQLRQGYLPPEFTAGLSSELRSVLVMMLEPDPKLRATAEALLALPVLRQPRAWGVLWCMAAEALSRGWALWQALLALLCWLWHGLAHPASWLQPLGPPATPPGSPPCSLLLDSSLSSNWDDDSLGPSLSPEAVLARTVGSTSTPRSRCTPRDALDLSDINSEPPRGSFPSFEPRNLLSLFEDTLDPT
Outline: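 The binding affinity of compounds for Myt1 kinase was measured with a LanthaScreen Europium (Eu) Kinase Binding Assay, a time-resolved FRET format in which test compounds compete against a labeled kinase tracer, and the results were expressed as IC50 values describing compound binding to Myt1.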

[3] = biological target: T3, Wee1A kinase (CDK1 Tyr15 phosphorylation in ACHN renal cell carcinoma cells) (Homo sapiens, UniProt P30291); assay: High-content imaging of pCdk1 Y15, Wee1A kinase target engagement in ACHN cells; assay type: cell-based
T3 construct: pCDK1 Tyr15 immunofluorescence read-out
Outline: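 ACHN cells exposed to compound for 4 h over 7–5,000 nM or 0.3–200 nM, then fixed and immunostained for pCDK1 Y15 with DAPI nuclear counterstain. The percentage of pCdk1 Y15 nucleus-positive cells relative to DMSO control was imaged per well; EC50 from dose-response curves.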

[4] = Myt1 kinase Binding IC50, 3 nM tracer 178, 2.5 nM PMYT-1, 1 nM Eu-labeled antibody
[5] = read-out: CDK1 Tyr15 Phosphorylation EC50, 4 h treatment, nuclear positivity for pCdk1 Y15 vs DMSO control
[6] = 30 nM tracer 178, 5 nM Wee1A kinase, 2 nM Eu-labeled antibody, 60 minutes at room temperature, read-out: Wee1A kinase Binding IC50
[7] = 3 nM tracer 178, 2.5 nM PMYT-1, 1 nM Eu-labeled antibody, read-out: Myt1 kinase Binding IC50
[8] = 4 h treatment, nuclear positivity for pCdk1 Y15 vs DMSO control, read-out: CDK1 Tyr15 Phosphorylation EC50

T3 sequence (P30291 whole entry): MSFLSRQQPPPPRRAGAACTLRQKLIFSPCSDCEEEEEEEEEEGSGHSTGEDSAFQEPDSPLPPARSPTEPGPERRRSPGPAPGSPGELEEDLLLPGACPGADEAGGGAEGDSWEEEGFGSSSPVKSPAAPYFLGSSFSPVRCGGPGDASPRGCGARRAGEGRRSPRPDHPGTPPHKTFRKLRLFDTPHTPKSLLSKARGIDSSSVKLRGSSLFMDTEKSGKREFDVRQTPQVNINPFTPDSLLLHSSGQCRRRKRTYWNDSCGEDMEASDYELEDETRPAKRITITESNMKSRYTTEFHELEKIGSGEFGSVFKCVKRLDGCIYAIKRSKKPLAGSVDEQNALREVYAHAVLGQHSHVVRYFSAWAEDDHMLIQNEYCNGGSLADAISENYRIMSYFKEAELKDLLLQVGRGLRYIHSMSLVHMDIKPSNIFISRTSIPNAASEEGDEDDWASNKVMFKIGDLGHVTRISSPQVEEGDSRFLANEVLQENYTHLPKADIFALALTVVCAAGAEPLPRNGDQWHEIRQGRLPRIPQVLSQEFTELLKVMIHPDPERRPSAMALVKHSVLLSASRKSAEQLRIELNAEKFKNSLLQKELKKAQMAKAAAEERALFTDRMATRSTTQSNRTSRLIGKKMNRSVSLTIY
T1 sequence (P30291 whole entry): as above

IC50 [1] | IC50 [2, 4] | EC50 [3, 5] | IC50 [1, 6] | IC50 [2, 7] | EC50 [3, 8] | SMILES
< 10 nM | > 500 nM | > 1000 nM |  |  |  | C=CCn1c(=O)c2cnc(Nc3cnn(CC(C)C)c3)nc2n1-c1cccc(N(C)C2CCNCC2)n1 [Compound 170, 1-{6-[methyl(piperidin-4-yl)amino]pyridin-2-yl}-6-{[1-(2-methylpropyl)-1H-pyrazol-4-yl]amino}-2-(prop-2-en-1-yl)-1H,2H,3H-pyrazolo[3,4-d]pyrimidin-3-one]
 |  |  | < 10 nM | > 500 nM | > 1000 nM | C=CCn1c(=O)c2cnc(Nc3ccc(Cl)cc3)nc2n1-c1cccc(N(C)[C@@H]2CCCNC2)n1 [Compound 171, 1-{6-[N—(R)-3-piperidyl-N-methylamino]-2-pyridyl}-2-allyl-6-(p-chlorophenylamino)-1,2-dihydro-3H-1,2,5,7-tetraazainden-3-one]
< 10 nM | > 500 nM | 100 to 500 nM |  |  |  | C=CCn1c(=O)c2cnc(Nc3cnn(C(C)C)c3)nc2n1-c1cccc(N(C)C2CCN(C)CC2)n1 [Compound 174, 1-{6-[methyl(1-methylpiperidin-4-yl)amino]pyridin-2-yl}-2-(prop-2-en-1-yl)-6-{[1-(propan-2-yl)-1H-pyrazol-4-yl]amino}-1H,2H,3H-pyrazolo[3,4-d]pyrimidin-3-one]
< 10 nM | > 500 nM | 500 to 1000 nM |  |  |  | C=CCn1c(=O)c2cnc(Nc3cnn(CC(C)C)c3)nc2n1-c1cccc(N(C)C2CCN(C)CC2)n1 [Compound 175, 1-{6-[methyl(1-methylpiperidin-4-yl)amino]pyridin-2-yl}-6-{[1-(2-methylpropyl)-1H-pyrazol-4-yl]amino}-2-(prop-2-en-1-yl)-1H,2H,3H-pyrazolo[3,4-d]pyrimidin-3-one]
< 10 nM | > 500 nM | > 1000 nM |  |  |  | C=CCn1c(=O)c2cnc(Nc3ccc(Cl)cc3)nc2n1-c1cccc(O[C@H]2CN3CCC2CC3)n1 [Compound 176, 1-{6-[(3R)-1-azabicyclo[2.2.2]octan-3-yloxy]pyridin-2-yl}-6-[(4-chlorophenyl)amino]-2-(prop-2-en-1-yl)-1H,2H,3H-pyrazolo[3,4-d]pyrimidin-3-one]
< 10 nM | > 500 nM | 100 to 500 nM |  |  |  | C=CCn1c(=O)c2cnc(Nc3cnn(CCC)c3)nc2n1-c1cccc(N(C)C2CCN(C)CC2)n1 [Compound 177, 1-{6-[N-methyl(1-methyl-4-piperidyl)amino]-2-pyridyl}-2-allyl-6-(1-propyl-4-pyrazolylamino)-1,2-dihydro-3H-1,2,5,7-tetraazainden-3-one]
 |  |  | < 10 nM | 100 to 500 nM | 100 to 500 nM | C=CCn1c(=O)c2cnc(Nc3ccc(OCC(F)(F)F)c(C)c3)nc2n1-c1cccc(NC2CCNCC2)n1 [Compound 178, 2-allyl-1-[6-(4-piperidylamino)-2-pyridyl]-6-[4-(2,2,2-trifluoroethoxy)-3-toluidino]-1,2-dihydro-3H-1,2,5,7-tetraazainden-3-one]
 |  |  | < 10 nM | > 500 nM | > 1000 nM | C=CCn1c(=O)c2cnc(Nc3cnn(CCC)c3)nc2n1-c1cccc(OC2CCNCC2)n1 [Compound 179, 2-allyl-1-[6-(4-piperidyloxy)-2-pyridyl]-6-(1-propyl-4-pyrazolylamino)-1,2-dihydro-3H-1,2,5,7-tetraazainden-3-one]
< 10 nM | > 500 nM | > 1000 nM |  |  |  | C=CCn1c(=O)c2cnc(Nc3cnn(C)c3)nc2n1-c1cccc(N(C)C2CCNCC2)n1 [Compound 182, 1-{6-[methyl(piperidin-4-yl)amino]pyridin-2-yl}-6-[(1-methyl-1H-pyrazol-4-yl)amino]-2-(prop-2-en-1-yl)-1H,2H,3H-pyrazolo[3,4-d]pyrimidin-3-one]
< 10 nM | > 500 nM | > 1000 nM |  |  |  | C=CCn1c(=O)c2cnc(Nc3cnn(CC(C)(C)F)c3)nc2n1-c1cccc(N(C)C2CCNCC2)n1 [Compound 183, 1-[6-(N-methyl-N-4-piperidylamino)-2-pyridyl]-2-allyl-6-[1-(2-fluoro-2-methylpropyl)-4-pyrazolylamino]-1,2-dihydro-3H-1,2,5,7-tetraazainden-3-one]
< 10 nM | > 500 nM | 100 to 500 nM |  |  |  | C=CCn1c(=O)c2cnc(Nc3cnn(C)c3)nc2n1-c1cccc(N(C)C2CCN(C)CC2)n1 [Compound 184, 1-{6-[methyl(1-methylpiperidin-4-yl)amino]pyridin-2-yl}-6-[(1-methyl-1H-pyrazol-4-yl)amino]-2-(prop-2-en-1-yl)-1H,2H,3H-pyrazolo[3,4-d]pyrimidin-3-one]
< 10 nM | > 500 nM | 500 to 1000 nM |  |  |  | C=CCn1c(=O)c2cnc(Nc3cnn(CC(C)(C)F)c3)nc2n1-c1cccc(N(C)C2CCN(C)CC2)n1 [Compound 185, 6-{[1-(2-fluoro-2-methylpropyl)-1H-pyrazol-4-yl]amino}-1-{6-[methyl(1-methylpiperidin-4-yl)amino]pyridin-2-yl}-2-(prop-2-en-1-yl)-1H,2H,3H-pyrazolo[3,4-d]pyrimidin-3-one]
 |  |  | < 10 nM | 100 to 500 nM | 500 to 1000 nM | C=CCn1c(=O)c2cnc(Nc3ccc(Cl)cc3)nc2n1-c1cccc(O[C@@H]2CCCN(C)C2)n1 [Compound 187, 1-{6-[(R)-1-methyl-3-piperidyloxy]-2-pyridyl}-2-allyl-6-(p-chlorophenylamino)-1,2-dihydro-3H-1,2,5,7-tetraazainden-3-one]
< 10 nM | > 500 nM | 500 to 1000 nM |  |  |  | C=CCn1c(=O)c2cnc(Nc3cnn(C)c3)nc2n1-c1cccc(O[C@@H]2C[C@H]3CC[C@@H](C2)N3C)n1 [Compound 189, 6-[(1-methyl-1H-pyrazol-4-yl)amino]-1-(6-{[(cis)-8-methyl-8-azabicyclo[3.2.1]octan-3-yl]oxy}pyridin-2-yl)-2-(prop-2-en-1-yl)-1H,2H,3H-pyrazolo[3,4-d]pyrimidin-3-one]
 |  |  | < 10 nM | 100 to 500 nM | 100 to 500 nM | C=CCn1c(=O)c2cnc(Nc3ccc(Cl)cc3)nc2n1-c1cccc(O[C@@H]2CCCNC2)n1 [Compound 192, 1-{6-[(R)-3-piperidyloxy]-2-pyridyl}-2-allyl-6-(p-chlorophenylamino)-1,2-dihydro-3H-1,2,5,7-tetraazainden-3-one]
 |  |  | < 10 nM | > 500 nM | 100 to 500 nM | C=CCn1c(=O)c2cnc(Nc3cnn(C(C)C)c3)nc2n1-c1cccc(OC2CC3CCCC(C2)N3C)n1 (stereo not drawn) [Compound 193, 2-allyl-6-(1-isopropyl-4-pyrazolylamino)-1-{6-(9-methyl-9-azabicyclo[3.3.1]non-3-yloxy)-2-pyridyl}-1,2-dihydro-3H-1,2,5,7-tetraazainden-3-one]
< 10 nM | 100 to 500 nM | 500 to 1000 nM |  |  |  | C=CCn1c(=O)c2cnc(Nc3cnn(CCC(F)(F)F)c3)nc2n1-c1cccc(N(C)C2CCN(C)CC2)n1 [Compound 201, 2-allyl-1-(6-(methyl(1-methylpiperidin-4-yl)amino)pyridin-2-yl)-6-((1-(3,3,3-trifluoropropyl)-1H-pyrazol-4-yl)amino)-1,2-dihydro-3H-pyrazolo[3,4-d]pyrimidin-3-one]
 |  |  | < 10 nM | 100 to 500 nM | 500 to 1000 nM | C=CCn1c(=O)c2cnc(Nc3cc(C)nc(C(F)(F)F)c3)nc2n1-c1cccc(OC2CCN(C)CC2)n1 [Compound 202, 6-{[2-methyl-6-(trifluoromethyl)pyridin-4-yl]amino}-1-{6-[(1-methylpiperidin-4-yl)oxy]pyridin-2-yl}-2-(prop-2-en-1-yl)-1H,2H,3H-pyrazolo[3,4-d]pyrimidin-3-one]
 |  |  | < 10 nM | > 500 nM | 100 to 500 nM | C=CCn1c(=O)c2cnc(Nc3ccc4c(cnn4C)c3)nc2n1-c1cccc(OC2CCNCC2)c1 [Compound 223, 2-allyl-6-(1-methyl-1H-indazol-5-ylamino)-1-[m-(4-piperidyloxy)phenyl]-1,2-dihydro-3H-1,2,5,7-tetraazainden-3-one]
